10 molecules from ChEMBL document CHEMBL1201862, “PubChem BioAssay data set” (2004) can be followed below.

Some test systems named below: T47D; HCC 2998; CAKI-1; PC-3; A498; HT-29; 786-0; NCI-H460; NCI/ADR-RES; RPMI-8226; ACHN; BT-549; DU-145; OVCAR-3; OVCAR-4; UACC-62; SR; UACC-257; MDA-N; OVCAR-5.
What all share (test): inhibition of tumour cell growth, NCI panel, 48 h

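Interpolation was linear, between the two tested concentrations surrounding the appropriate level; five concentrations were tested over 48 hours in 96-well plates. GI50 is the concentration that inhibits growth by half.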 Calls of active or inactive are those of the source. No stated cut-off is given here; in the data, active = GI50 up to about 1.1 µM and inactive = higher.

On to `COC(OC)(c1ccccc1)C(I)I`, for which the GI50 was 19.2 µM (inactive) in the test with T47D; 23.1 µM (inactive) with HCC 2998; 11.8 µM (inactive) with CAKI-1; 14.2 µM (inactive) in the test with PC-3; > 10 µM (inactive) with A498; 15 µM (inactive) in the test with HT-29. The GI50 in the test on 786-0 is 8.36 µM (inactive); in the test on NCI-H460, 16.7 µM (inactive); with NCI/ADR-RES, 16.3 µM (inactive); in the test with RPMI-8226 it was 2.09 µM (inactive); with ACHN, 16.5 µM (inactive); in the test on BT-549, 11 µM (inactive). The GI50 is 24.5 µM (inactive) in the test on DU-145; 15.3 µM (inactive) with OVCAR-3; 14.2 µM (inactive) in the test on OVCAR-4; 13.4 µM (inactive) in the test on UACC-62; 2.04 µM (inactive) in the test on SR; 3.45 µM (inactive) with UACC-257. Also, the GI50 in the test with MDA-N is 7.96 µM (inactive); in the test with OVCAR-5, 16.2 µM (inactive).
Consider `COc1cc2nc(-c3ccccc3)cc(O)c2cc1OC`, for which the GI50 in the test with T47D was > 100 µM (inactive); in the test with HCC 2998 it was 16.5 µM (inactive); with CAKI-1 it was 23.6 µM (inactive); with PC-3, 23 µM (inactive); in the test on A498 it was 40.6 µM (inactive); in the test on HT-29, 9.84 µM (inactive). Moreover, the GI50 is 27.8 µM (inactive) in the test on 786-0; 11.2 µM (inactive) in the test on NCI-H460; 54.8 µM (inactive) in the test on NCI/ADR-RES; 27 µM (inactive) in the test with RPMI-8226; 41.1 µM (inactive) in the test with ACHN; > 100 µM (inactive) in the test with BT-549. Also, the GI50 with DU-145 is 54 µM (inactive); with OVCAR-3, 4.44 µM (inactive); with OVCAR-4, > 73.3 µM (inactive); with UACC-62, 10.8 µM (inactive); in the test on SR, 6 µM (inactive); with UACC-257, 63.7 µM (inactive). The GI50 with MDA-N is 2.18 µM (inactive); in the test with OVCAR-5 it was 41.1 µM (inactive).
In the case of `O=c1c2c3c(sc2nc2n1N=C(c1ccc(Cl)cc1)CS2)CCCC3`, the GI50 with T47D, with HCC 2998, in the test on CAKI-1, with PC-3, in the test with A498 and in the test with HT-29 was > 100 µM (inactive) each time. Further, the GI50 in the test on 786-0, with NCI-H460, in the test with NCI/ADR-RES, in the test with RPMI-8226, with ACHN and in the test on BT-549 was > 100 µM (inactive) each time. Besides, the GI50 in the test with DU-145, in the test on OVCAR-3, in the test with OVCAR-4, with UACC-62, with SR and with UACC-257 was > 100 µM (inactive) each time. Also, the GI50 with MDA-N and in the test on OVCAR-5 was > 100 µM (inactive) in each case.
Regarding `CCCCC(=O)OC[n+]1ccc(-c2c(COC(=O)NC(C)C)c(COC(=O)NC(C)C)c3n2CCC3)cc1`, the GI50 with T47D was > 100 µM (inactive); in the test with HCC 2998, > 100 µM (inactive); in the test on CAKI-1 it was 24.9 µM (inactive); with PC-3 it was > 84.5 µM (inactive); in the test on A498, 23.9 µM (inactive); in the test on HT-29 it was > 76 µM (inactive). The GI50 in the test on 786-0 is 39.4 µM (inactive); in the test with NCI-H460, 42.3 µM (inactive); in the test on NCI/ADR-RES it was > 100 µM (inactive); with RPMI-8226 it was > 68.7 µM (inactive); in the test with ACHN it was 34.6 µM (inactive); with BT-549 it was > 100 µM (inactive). The GI50 was > 70.5 µM (inactive) in the test with DU-145; > 100 µM (inactive) with OVCAR-3; > 100 µM (inactive) in the test on OVCAR-4; 30.9 µM (inactive) with UACC-62; 10 µM (inactive) in the test on SR; > 100 µM (inactive) with UACC-257. For the same molecule, the GI50 in the test with MDA-N and in the test with OVCAR-5 was > 100 µM (inactive) in each case.
Take `CCCC[C@H]1C(=O)O[C@H](C)[C@H](NC(=O)c2cccc(NC=O)c2OC)C(=O)O[C@@H](C)[C@@H]1OC(=O)C(C)CC.CCCC[C@H]1C(=O)O[C@H](C)[C@H](NC(=O)c2cccc(NC=O)c2OC)C(=O)O[C@@H](C)[C@@H]1OC(=O)CC(C)C` (stereo not given in full): the GI50 in the test on T47D is 14 µM (inactive); in the test on HCC 2998, 29 µM (inactive); with CAKI-1, 7.87 µM (inactive); in the test with PC-3, 9.42 µM (inactive); with A498, 8.81 µM (inactive); in the test on HT-29 it was 9.84 µM (inactive). Further, the GI50 with 786-0 was 12.1 µM (inactive); in the test with NCI-H460, 5.35 µM (inactive); in the test on NCI/ADR-RES it was 23 µM (inactive); in the test with RPMI-8226 it was 10.2 µM (inactive); in the test with ACHN it was 10.8 µM (inactive); with BT-549 it was 16.8 µM (inactive). For the same molecule, the GI50 with DU-145 was 13.4 µM (inactive); with OVCAR-3, 10.2 µM (inactive); in the test with OVCAR-4, 7.94 µM (inactive); with UACC-62, 7.14 µM (inactive); with SR, 14.5 µM (inactive); in the test with UACC-257, 12.1 µM (inactive). The GI50 in the test on MDA-N is 17.6 µM (inactive); in the test with OVCAR-5 it was 22.2 µM (inactive).
With `O=c1c2ccccc2n2cnc3ccc(NCCNCCO)c1c32`, the GI50 with T47D is 4.76 µM (inactive); with HCC 2998, 1.77 µM (inactive); with CAKI-1 it was 2.43 µM (inactive); in the test with PC-3, 1.91 µM (inactive); in the test with A498 it was 1.71 µM (inactive); with HT-29, 1.06 µM (active). Moreover, the GI50 in the test on 786-0 was 0.889 µM (active); with NCI-H460, 0.536 µM (active); in the test on NCI/ADR-RES, 2.81 µM (inactive); in the test with RPMI-8226, 2.2 µM (inactive); in the test on ACHN it was 0.836 µM (active); in the test with BT-549 it was 3.66 µM (inactive). Besides, the GI50 with DU-145 was 0.384 µM (active); in the test with OVCAR-3, 2.19 µM (inactive); in the test on OVCAR-4 it was 1.44 µM (inactive); with UACC-62, 2.31 µM (inactive); in the test with SR, 0.467 µM (active); with UACC-257 it was 3.37 µM (inactive). For the same molecule, the GI50 was 1.9 µM (inactive) with MDA-N and 2.02 µM (inactive) with OVCAR-5.
For the molecule `COc1cc(-c2[o+]c3cc(O)cc(O)c3cc2O)cc(O)c1O`, the GI50 in the test with T47D is > 100 µM (inactive); in the test on HCC 2998, 35 µM (inactive); in the test with CAKI-1, > 100 µM (inactive); in the test with PC-3 it was > 100 µM (inactive); in the test with A498 it was > 100 µM (inactive); with HT-29, > 100 µM (inactive). For the same molecule, the GI50 in the test with 786-0, in the test on NCI-H460, with NCI/ADR-RES, in the test with RPMI-8226, in the test with ACHN and with BT-549 was > 100 µM (inactive) in each case. Also, the GI50 is > 100 µM (inactive) with DU-145; > 100 µM (inactive) in the test with OVCAR-3; 60 µM (inactive) in the test on OVCAR-4; > 100 µM (inactive) in the test on UACC-62; 96.6 µM (inactive) in the test with SR; > 100 µM (inactive) in the test on UACC-257. Also, the GI50 is 34.8 µM (inactive) in the test with MDA-N and > 100 µM (inactive) in the test on OVCAR-5.
As for `CCCCC(=O)OC[n+]1cccc(-c2c(COC(=O)NC(C)C)c(COC(=O)NC(C)C)c3n2CCC3)c1`, the GI50 with T47D is > 83.2 µM (inactive); in the test with HCC 2998 it was > 100 µM (inactive); in the test on CAKI-1 it was 12.3 µM (inactive); in the test on PC-3, 60.7 µM (inactive); in the test with A498 it was 25.8 µM (inactive); in the test with HT-29, 43 µM (inactive). Besides, the GI50 with 786-0 is 23.1 µM (inactive); with NCI-H460 it was 15 µM (inactive); in the test with NCI/ADR-RES it was 34.9 µM (inactive); in the test with RPMI-8226 it was 30 µM (inactive); with ACHN it was 21.3 µM (inactive); in the test on BT-549, 28.8 µM (inactive). Moreover, the GI50 is 25.8 µM (inactive) in the test with DU-145; 57.3 µM (inactive) in the test with OVCAR-3; 31.3 µM (inactive) with OVCAR-4; 20 µM (inactive) with UACC-62; 4.72 µM (inactive) with SR; 44.7 µM (inactive) in the test with UACC-257. Further, the results for the GI50 in the test on MDA-N and with OVCAR-5 were 99.1 µM (inactive) and > 68.1 µM (inactive), respectively.
For `COc1ccccc1C1c2cc3c(cc2OC(N2CCCC2)C1C)OCO3` (stereo not given), the GI50 in the test on T47D was 13.9 µM (inactive); in the test on HCC 2998, 15.8 µM (inactive); in the test on CAKI-1 it was 9.84 µM (inactive); in the test with PC-3, 16 µM (inactive); in the test with A498 it was 15.2 µM (inactive); in the test on HT-29, 21.4 µM (inactive). Moreover, the GI50 in the test on 786-0 was 16.8 µM (inactive); in the test with NCI-H460, 16.4 µM (inactive); in the test with NCI/ADR-RES, 18.5 µM (inactive); in the test with RPMI-8226 it was 14.8 µM (inactive); with ACHN, 14.5 µM (inactive); in the test on BT-549, 16.8 µM (inactive). For the same molecule, the GI50 was 15.2 µM (inactive) in the test on DU-145; 15.7 µM (inactive) in the test on OVCAR-3; 21.6 µM (inactive) in the test with OVCAR-4; 16.2 µM (inactive) with UACC-62; 6.21 µM (inactive) in the test with SR; 20.4 µM (inactive) in the test on UACC-257. Besides, the GI50 is 11.1 µM (inactive) with MDA-N and 19.2 µM (inactive) with OVCAR-5.
Regarding `CCC1(c2ccc(N3C(=O)c4cc(OC)c(OC)cc4C3=O)cc2)CCC(=O)NC1=O` (stereo not given), the GI50 in the test with T47D, in the test on HCC 2998, in the test with CAKI-1, in the test on PC-3, with A498 and with HT-29 was > 10 µM (inactive) in each case. The GI50 in the test with 786-0, in the test on NCI-H460, in the test on NCI/ADR-RES, with RPMI-8226, in the test on ACHN and in the test with BT-549 was > 10 µM (inactive) each time. Further, the GI50 in the test on DU-145, in the test on OVCAR-3, in the test with OVCAR-4, in the test with UACC-62, in the test on SR and with UACC-257 was > 10 µM (inactive) each time. The GI50 in the test with MDA-N and with OVCAR-5 was > 10 µM (inactive) in each case.
